# Values of other authors in US11046725B2, “Galactoside inhibitor of galectins” (GALECTO BIOTECH AB, priority 2018, dated 2021).
# Target: Galectin-1 (Homo sapiens (Human), UniProt P09382)
# Conditions: T. Delaine, 2016; read-out: affinity to Galectin-1; cited from earlier work
# Chain of Galectin-1 (P09382 whole entry, species assumed): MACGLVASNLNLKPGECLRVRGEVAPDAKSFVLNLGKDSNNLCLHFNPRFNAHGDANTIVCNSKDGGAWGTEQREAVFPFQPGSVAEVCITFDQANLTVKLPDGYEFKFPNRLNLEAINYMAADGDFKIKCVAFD
compound,measurement,value
OCC1O[C@@H](SC2O[C@H](CO)C(O)C(n3cc(-c4ccsc4)nn3)[C@H]2O)C(O)C(n2cc(-c3ccsc3)nn2)[C@H]1O (stereo partly shown),Kd,< 10 nM
